Results reported in PMC6755732, “Structural, Biochemical, and In Vivo Characterization of MtrR-Mediated Resistance to Innate Antimicrobials by the Human Pathogen Neisseria gonorrhoeae” (Journal of Bacteriology, 2019).

What was measured:
[1] = target: T1, MtrR-mtrCDE promoter (Neisseria gonorrhoeae, UniProt P39897); assay type: biochemical; settings: 10 mM CAPS, pH 8.0
T1 construct: nearly all 210 residues of each protomer observed, with the exception of residues 1 through 7; hexahistidine tag (thrombin-cleavable) (cleaved yes); made in house
Experimental: Thus, to rule out any effect of alkaline pH on MtrR-DNA interactions, we buffered the CAPS used in the FP assay to pH 8.0 before testing its effect on DNA binding.
Fluorescence polarization-based DNA binding experiments were performed with a Panvera Beacon 2000 fluorescence polarization system (Invitrogen) utilizing 5′-fluorescein-labeled DNA. Polarization (P) of such 5′-labeled DNA increases as a function of protein binding, and equilibrium dissociation constants are determined by curve fitting the values of millipolarization (P × 10^−3) units against the protein concentration. To determine the effects of various ligands on MtrR-DNA binding, 1 nM 5′-fluoresceinated oligodeoxynucleotide duplexes containing the mtrC operator site in 1 ml binding buffer (20 mM Tris HCl [pH 8.0], 100 mM NaCl, and 2.5% glycerol) were titrated against increasing concentrations of purified MtrR in the presence or absence of the indicated concentrations of bile salt, and the resulting changes in polarization were measured. All the samples were excited at 490 nm, and their polarized emissions were measured at 530 nm. All the data were plotted using Kaleidagraph (Synergy Software) and Prism (GraphPad Software), and the resulting plots were fitted to the following equation: P = {(Pbound − Pfree)[protein]/(KD + [protein])} + Pfree, where P is the polarization measured at a given protein concentration, Pfree is the initial polarization of the free ligand, Pbound is the maximum polarization of specifically bound ligand, KD is the equilibrium dissociation constant, and [protein] is the protein concentration. Nonlinear least-squares analysis was used to determine Pbound, and Kd. The reported binding constants are the average values from at least three independent experimental measurements.

[2] = CAPS buffer; no reference given; cited from earlier work

T1 sequence (P39897 whole entry): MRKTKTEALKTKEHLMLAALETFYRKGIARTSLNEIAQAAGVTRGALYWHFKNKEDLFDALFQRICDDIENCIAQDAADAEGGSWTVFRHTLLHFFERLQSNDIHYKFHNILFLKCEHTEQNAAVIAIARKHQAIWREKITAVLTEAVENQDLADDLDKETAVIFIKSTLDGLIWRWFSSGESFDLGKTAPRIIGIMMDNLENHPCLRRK

## O=S(=O)(O)CCCNC1CCCCC1 [CAPS, N-cyclohexyl-3-aminopropanesulfonic acid]
[1]
  Fold reduction of MtrR affinity for the mtrC operator sequence: > 300 fold
[2]
  pKa: ~10.5
